How the values were obtained:
Type in all cases: in vivo
[1] = system: ryegrass, Italian (Italian ryegrass, Lolium multiflorum); experiment: Test C greenhouse herbicide test, pre- and postemergence
How it was run: (§1)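 Preemergence: seeds sown in a loam soil–sand blend and sprayed with test chemicals in a non-phytotoxic solvent mixture containing surfactant. Postemergence: plants grown in peat-based medium and treated at 2 to 18 cm (1- to 4-leaf stage). After 13 to 15 d in a greenhouse, injury was visually rated 0–100 against controls.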

[2] = system: ragweed (common ragweed, Ambrosia elatior); experiment: as above
How it was run: as §1

[3] = system: crabgrass, large (large crabgrass, Digitaria sanguinalis); experiment: as above
How it was run: as §1

[4] = system: oilseed rape (Brassica napus); experiment: as above
How it was run: as §1

[5] = system: foxtail, giant (giant foxtail, Setaria faberii); experiment: as above
How it was run: as §1

[6] = system: wheat (winter wheat, Triticum aestivum); experiment: as above
How it was run: as §1

[7] = system: barnyardgrass (Echinochloa crus-galli); experiment: as above
How it was run: as §1

[8] = system: morningglory (Ipomoea coccinea); experiment: as above
How it was run: as §1

[9] = system: lambsquarters (Chenopodium album); experiment: as above
How it was run: as §1

[10] = system: galium (catchweed bedstraw, Galium aparine); experiment: as above
How it was run: as §1

[11] = system: johnsongrass (Sorghum halepense); experiment: as above
How it was run: as §1

[12] = system: blackgrass (Alopecurus myosuroides); experiment: Test A greenhouse herbicide test, postemergence
How it was run: (§2)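 Plants grown in loam soil/sand blend pots were treated postemergence at 2 to 10 cm height, one- to two-leaf stage, with formulated test chemicals. After approximately 10 d in a greenhouse, injury was rated visually against untreated controls on a 0 to 100 scale (0 no effect, 100 complete control).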

[13] = system: galium (catchweed bedstraw, Galium aparine); experiment: Test A greenhouse herbicide test, postemergence
How it was run: as §2

[14] = Postemergence, 31 g ai/ha, scale 0 to 100 (0 no effect, 100 complete control)
[15] = Postemergence, 125 g ai/ha, scale 0 to 100, 0 is no effect, 100 is complete control
[16] = Postemergence, 250 g ai/ha, scale 0 to 100, 0 no effect, 100 complete control, 13 to 15 d
[17] = Preemergence, 31 g ai/ha, scale 0 to 100, 0 is no effect, 100 is complete control
[18] = Preemergence, 62 g ai/ha, scale 0 to 100, 0 is no effect, 100 is complete control
[19] = Preemergence, 125 g ai/ha, scale 0 to 100, 0 is no effect, 100 is complete control
[20] = Preemergence, 250 g ai/ha, scale 0 to 100, 0 no effect, 100 complete control
[21] = postemergence, 62 g ai/ha, scale 0 to 100, 0 no effect, 100 complete control
[22] = 125 g ai/ha, 0 to 100 scale where 0 is no effect and 100 is complete control

`CCCC(=O)Oc1c(C)nn(C)c(=O)c1-c1c(CC)sc2ccc(C)cc12` [Compound 107] was tested, and the “Plant response rating, Ryegrass, Italian” value [1, 14] was 40, the “Plant response rating, Ryegrass, Italian” value [1, 15] was 60 and the “Plant response rating, Ryegrass, Italian” value [1, 16] was 90. For the same compound, the “Plant response rating, Ryegrass, Italian” value [1, 17] was 15, the “Plant response rating, Ryegrass, Italian” value [1, 18] was 35 and the “Plant response rating, Ryegrass, Italian” value [1, 19] was 35. The “Ryegrass, Italian plant response rating” value [1, 20] was 30, the “Plant response rating, Ragweed” value [2, 14] was 85 and the “Plant response rating, Ragweed” value [2, 15] was 98. For the same compound, the “Plant response rating, Ragweed” value [2, 16] was 98, the “Plant response rating, Ragweed” value [2, 17] was 75 and the “Plant response rating, Ragweed” value [2, 18] was 90. For the same compound, the “Plant response rating, Ragweed” value [2, 19] was 85, the “Ragweed plant response rating” value [2, 20] was 100 and the “Plant response rating, Crabgrass, Large” value [3, 14] was 15. For the same compound, the “Plant response rating, Crabgrass, Large” value [3, 15] was 35, the “Plant response rating, Crabgrass, Large” value [3, 16] was 65 and the “Plant response rating, Crabgrass, Large” value [3, 17] was 30. The “Plant response rating, Crabgrass, Large” value [3, 18] was 30, the “Plant response rating, Crabgrass, Large” value [3, 19] was 75 and the “Crabgrass, Large plant response rating” value [3, 20] was 85. For the same compound, the “Crabgrass, Large plant response rating” value [3, 21] was 20, the “Plant response rating, Oilseed Rape” value [4, 14] was 25 and the “Plant response rating, Oilseed Rape” value [4, 15] was 80. The “Plant response rating, Oilseed Rape” value [4, 16] was 45, the “Plant response rating, Oilseed Rape” value [4, 17] was 0 and the “Plant response rating, Oilseed Rape” value [4, 18] was 0. For the same compound, the “Plant response rating, Oilseed Rape” value [4, 19] was 20, the “Oilseed Rape plant response rating” value [4, 20] was 80 and the “Plant response rating, Foxtail, Giant” value [5, 14] was 15. The “Plant response rating, Foxtail, Giant” value [5, 15] was 70, the “Plant response rating, Foxtail, Giant” value [5, 16] was 75 and the “Plant response rating, Foxtail, Giant” value [5, 17] was 60. For the same compound, the “Plant response rating, Foxtail, Giant” value [5, 18] was 80, the “Plant response rating, Foxtail, Giant” value [5, 19] was 85 and the “Foxtail, Giant plant response rating” value [5, 20] was 98. The “Plant response rating, Wheat” value [6, 14] was 0, the “Plant response rating, Wheat” value [6, 15] was 0 and the “Plant response rating, Wheat” value [6, 16] was 0. The “Plant response rating, Wheat” value [6, 17] was 0, the “Plant response rating, Wheat” value [6, 18] was 0 and the “Plant response rating, Wheat” value [6, 19] was 0. The “Wheat plant response rating” value [6, 20] was 5, the “Plant response rating, Barnyardgrass” value [7, 14] was 35 and the “Plant response rating, Barnyardgrass” value [7, 15] was 40. The “Plant response rating, Barnyardgrass” value [7, 16] was 90, the “Plant response rating, Barnyardgrass” value [7, 17] was 15 and the “Plant response rating, Barnyardgrass” value [7, 18] was 45. The “Plant response rating, Barnyardgrass” value [7, 19] was 80, the “Barnyardgrass plant response rating” value [7, 20] was 98 and the “Barnyardgrass plant response rating” value [7, 21] was 50. The “Plant response rating, Morningglory” value [8, 14] was 95, the “Plant response rating, Morningglory” value [8, 15] was 98 and the “Plant response rating, Morningglory” value [8, 16] was 100. For the same compound, the “Plant response rating, Morningglory” value [8, 17] was 80, the “Plant response rating, Morningglory” value [8, 18] was 85 and the “Plant response rating, Morningglory” value [8, 19] was 95. For the same compound, the “Morningglory plant response rating” value [8, 20] was 98, the “Plant response rating, Lambsquarters” value [9, 14] was 85 and the “Plant response rating, Lambsquarters” value [9, 15] was 90. For the same compound, the “Plant response rating, Lambsquarters” value [9, 16] was 98, the “Plant response rating, Lambsquarters” value [9, 17] was 90 and the “Plant response rating, Lambsquarters” value [9, 18] was 100. The “Plant response rating, Lambsquarters” value [9, 19] was 95, the “Lambsquarters plant response rating” value [9, 20] was 95 and the “Plant response rating, Galium” value [10, 14] was 95. The “Plant response rating, Galium” value [10, 15] was 100, the “Plant response rating, Galium” value [10, 16] was 98 and the “Plant response rating, Galium” value [10, 17] was 90. For the same compound, the “Plant response rating, Galium” value [10, 18] was 90, the “Plant response rating, Galium” value [10, 19] was 90 and the “Galium plant response rating” value [10, 20] was 95. For the same compound, the “Plant response rating, Johnsongrass” value [11, 14] was 0, the “Plant response rating, Johnsongrass” value [11, 15] was 0 and the “Plant response rating, Johnsongrass” value [11, 16] was 20. For the same compound, the “Plant response rating, Johnsongrass” value [11, 17] was 0, the “Plant response rating, Johnsongrass” value [11, 18] was 0 and the “Plant response rating, Johnsongrass” value [11, 19] was 10. The “Johnsongrass plant response rating” value [11, 20] was 20, the “Plant response rating, Blackgrass” value [12, 22] was 80 and the “Blackgrass plant response rating” value ([12]; 500 g ai/ha, 0 to 100 scale, 0 is no effect, 100 is complete control) was 90. For the same compound, the “Plant response rating, Galium” value [13, 22] was 100 and the “Plant response rating, Galium” value ([13]; 500 g ai/ha, visual rating after approx. 10 d, 0 to 100 scale (0 no effect, 100 complete control)) was 100.
